How the values were obtained:
PCSK9 [1] = target: T1, PCSK9 (Homo sapiens, UniProt Q8NBP7); assay: PCSK9-LDLR in vitro Binding Assay (ELISA)
Procedure, shortened: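 Solid-phase ELISA: PCSK9 premixed with compound at varying concentrations added to immobilized recombinant LDLR-AB domain. Bound PCSK9 detected via biotinylated anti-His mAb and HRP-streptavidin, absorbance at 450 nm; EC50 by nonlinear regression from duplicate points.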
Target sequence in this assay (Q8NBP7 153-692): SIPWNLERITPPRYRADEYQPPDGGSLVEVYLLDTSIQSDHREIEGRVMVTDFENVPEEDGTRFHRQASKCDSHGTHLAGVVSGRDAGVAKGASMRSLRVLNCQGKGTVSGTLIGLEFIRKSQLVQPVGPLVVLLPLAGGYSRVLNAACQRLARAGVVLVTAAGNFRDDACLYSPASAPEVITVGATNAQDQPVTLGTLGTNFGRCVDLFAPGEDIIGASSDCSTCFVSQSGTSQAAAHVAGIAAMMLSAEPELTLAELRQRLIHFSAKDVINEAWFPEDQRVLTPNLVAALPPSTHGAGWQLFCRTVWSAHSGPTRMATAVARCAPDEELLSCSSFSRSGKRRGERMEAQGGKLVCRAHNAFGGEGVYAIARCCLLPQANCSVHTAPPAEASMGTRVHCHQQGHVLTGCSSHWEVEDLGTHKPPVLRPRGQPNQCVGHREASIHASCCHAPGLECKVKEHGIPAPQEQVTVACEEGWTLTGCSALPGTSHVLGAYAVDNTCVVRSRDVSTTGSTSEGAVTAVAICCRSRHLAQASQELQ
Target sequence in this assay (Q8NBP7 31-152 partner limits assumed): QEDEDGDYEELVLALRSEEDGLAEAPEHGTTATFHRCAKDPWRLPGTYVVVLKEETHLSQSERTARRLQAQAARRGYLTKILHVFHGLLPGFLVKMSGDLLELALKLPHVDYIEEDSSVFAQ

PCSK9 [2] = target: T1, PCSK9; assay: SPR binding studies (BIACORE3000); details: 25° C., phosphate buffer pH 7.4; compounds run at 10 nM, 100 nM and 1 micro mole, concentration of the value not stated
Method: Instrumentation: BIACORE3000 from GE Life Sciences was used and the Interaction analysis was performed at 25° C.
Buffers: phosphate buffer pH 7.4 supplied by Biacore supplemented with 0.01% dimethyl sulfoxide (DMSO) was used as running buffer during the assay.
Immobilization of Ligand: Sensor chip CM5 was used for analysis. The sensor chip consists of a carboxymethyl-modified dextran polymer linked to a gold-covered glass support. The ligand was diluted to 10 micro gram/ml in 10 mM sodium acetate, pH5.0 and immobilized to the sensor chip, using amine coupling. Running buffer without DMSO was used during immobilization. The surface was activated by injecting a solution containing 0.2M N-ethyl-N′-dimethyl aminopropyl-carbodiimide (EDC) and 50 mM N-hydroxy succinimide (NHS). The system was set for Aim for immobilization of about 1000 RU and the surface was blocked by injecting 1 Mehanolamine at pH 8.5. Then the surface was washed with 50 mM NaOH by injecting two 30 second-pulses to remove off non covalently bound ligand and to stabilize the baseline (automated procedure). Activated dextran was used as a reference surface. To ensure highest sensitivity the SPR Detector response was normalized before running the assay. By calibrating the detector at various light intensities under Conditions of total internal reflection (automated procedure). Solvent correction for DMSO was also carried to minimize the error in data.
Assay Design: A binding assay was set up for different compounds at three different concentrations (10 nM, 100 nM and 1 micro mole), and were injected over the reference and Ligand flow cells at a flow rate of 30 micro liter/min. Each cycle consisted of a 1-min waiting period for monitoring of the baseline stability and 3 minute injection of compound with a 5 minute Undisturbed dissociation phase, and the surface was regenerated with 50 mM NaoH solution. Compound responses in the reference flow cell were subtracted with that of ligand and a solvent correction run was carried in between and the binding potential of the compounds was reported as relative response units (RU).
Target sequence in this assay (Q8NBP7 153-692): as the sequence (Q8NBP7 153-692) above

[3] = system: LPS induced dyslipidemia model C57 mice; assay: LDL-C lowering activity in LPS induced dyslipidemia model C57 mice; assay type: in vivo; details: male C57 mice, i.p. or oral, 24 hours after LPS, vs Vehicle group
Method: Male C57 mice of 7-10 week age are grouped based on non-fasting LDL-C levels, on next day these mice were administered with Vehicle or test compounds (i.p. or oral) and 30 min after compound administration lipolysaccharide (LPS) was administered. After LPS administration all animals were kept on fasting for 24 hours, after that animals were bled and LDL-C was measured. The percent change in LDL-C in test compound group Vs Vehicle group was calculated.

[4] = system: HF-HC diet fed Syrian golden hamsters; assay: Lipid lowering effect in HF-HC diet fed hamster model; assay type: in vivo; design: concentration or dose not given beside the values; details: oral gavage once daily, day 14
Excerpt: In this experiment, Syrian golden hamsters which were kept on high fat—high cholesterol (HF-HC) fructose diet for 2 weeks were divided into various groups based on LDL-C and Total cholesterol levels. The treatment was given by oral gavages once daily for 14 days. The blood was collected by retro-orbital sinus puncture method under light ether anesthesia on day 0 (pretreatment), and day 14 of the treatment for lipid levels measurements. The percent change in LDL-C in compound group Vs Vehicle group was calculated.

high fat diet C57 mice = assay: LDL-C lowering activity in high fat diet C57 mice; assay type: in vivo; details: C57 mice on high fat diet, orally once a day, 4-6 week treatment
Method: The in-vivo LDL-c lowering for test compound was tested in C57 mice which were kept on high fat diet for 4 weeks and the blood was collected by retro-orbital sinus puncture method under light ether anesthesia on day 0 (pretreatment), animal are grouped based on LDL-C levels, after that 4-6 week treatment with vehicle or test compound orally once a day was given. On completion of treatment on day 28 day and or on day 42 of the treatment the blood was collected for LDL-C levels measurement. The percent change in LDL-C in test compound group Vs Vehicle group was calculated.

SMILES: Cc1oc(-c2ccccc2)nc1CC1COC(C)(C(=O)NO)OC1 (single isomer, unassigned) [Example 4, N-(Hydroxy)-2-methyl-5-((5-methyl-2-phenyloxazol-4-yl)methyl)-1,3-dioxane-2-carboxamide]
- inhibition at 10 µM (PCSK9 [1]; Concentration 10 μM): 35%
- inhibition at 100 µM (PCSK9 [1]; Concentration 100 μM): 42%
- Relative response (RU) (PCSK9 [2]): 5.13 RU
- % Change in LDL-C [3]: −29.4 ± 4.1%
- % Change Vs Vehicle Control HDL-C [4]: −25%
- % Change Vs Vehicle Control LDL-C [4]: −24%
- % Change Vs Vehicle Control TC [4]: −27%
- % Change Vs Vehicle Control TG [4]: −35%
- % Change Vs Vehicle Control HDL-C (high fat diet C57 mice): −5%
- % Change Vs Vehicle Control LDL-C (high fat diet C57 mice): −24%
- % Change Vs Vehicle Control TC (high fat diet C57 mice): −14%
- % Change Vs Vehicle Control TG (high fat diet C57 mice): −35%

SMILES: Cc1oc(-c2ccccc2)nc1CCC1COC(C)(C(=O)NCC2CCOCC2)OC1 (stereo not shown) [Example 37, 2-methyl-5-(2-(5-methyl-2-phenyloxazol-4-yl)ethyl)-N—((tetrahydro-2H-pyran-4-yl)methyl)-1,3-dioxane-2-carboxamide]
- inhibition at 1 µM (PCSK9 [1]; Concentration 1 μM): 24%
- inhibition at 10 µM (PCSK9 [1]; Concentration 10 μM): 15%
- inhibition at 100 µM (PCSK9 [1]; Concentration 100 μM): 20%
- % Change in LDL-C [3]: −35.4 ± 8.3%

SMILES: Cc1oc(-c2ccccc2)nc1CCC1COC(C)(C(=O)N2CCOCC2)OC1 (stereo not shown) [Example 40, (2-methyl-5-(2-(5-methyl-2-phenyloxazol-4-yl)ethyl)-1,3-dioxan-2-yl)(morpholino)methanone]
- inhibition at 1 µM (PCSK9 [1]; Concentration 1 μM): 20%
- inhibition at 10 µM (PCSK9 [1]; Concentration 10 μM): 25%
- inhibition at 100 µM (PCSK9 [1]; Concentration 100 μM): 11%
- % Change in LDL-C [3]: −34.1 ± 5.7%

SMILES: Cc1ccc(-c2nc(CC3COC(C)(C(=O)NCC4CCOCC4)OC3)c(C)o2)cc1 (stereo not shown) [Example 63, 2-methyl-5-c-((5-methyl-2-(p-tolyl)oxazol-4-yl)methyl)-N—((tetrahydro-2H-pyran-4-yl)methyl)-1,3-dioxane-2-carboxamide]
- % Inhibition PCSK9 (PCSK9 [1]; Concentration 1 μM, 1 µM): 39%
- % Inhibition PCSK9 (PCSK9 [1]; Concentration 10 μM, 10 µM): 40%
- % Inhibition PCSK9 (PCSK9 [1]; Concentration 100 μM, 100 µM): 51%
- % Change in LDL-C [3]: −9.0 ± 10.0%

SMILES: Cc1oc(-c2ccncc2)nc1CC1COC(C)(C(=O)NCC2CCOCC2)OC1 (stereo not shown) [Example 84, 2-methyl-5-c-((5-methyl-2-(pyridin-4-yl)oxazol-4-yl)methyl)-N—((tetrahydro-2H-pyran-4-yl)methyl)-1,3-dioxane-2-carboxamide]
- % Inhibition PCSK9 (PCSK9 [1]; Concentration 1 μM, 1 µM): 25%
- % Inhibition PCSK9 (PCSK9 [1]; Concentration 10 μM, 10 µM): 29%
- % Inhibition PCSK9 (PCSK9 [1]; Concentration 100 μM, 100 µM): 65%
- Relative response (RU) (PCSK9 [2]): 2.23 RU
- % Change in LDL-C [3]: −25.8 ± 8.6%

SMILES: Cc1nc(-c2ccc(C(F)(F)F)cc2)sc1CC1COC(C)(C(=O)NO)OC1 (stereo not shown) [Example 91, N-hydroxy-2-methyl-5-((4-methyl-2-(4-(trifluoromethyl)phenyl)thiazol-5-yl)methyl)-1,3-dioxane-2-carboxamide]
- inhibition at 1 µM (PCSK9 [1]; Concentration 1 μM): 8%
- inhibition at 10 µM (PCSK9 [1]; Concentration 10 μM): 12%
- inhibition at 100 µM (PCSK9 [1]; Concentration 100 μM): 32%
- % Change in LDL-C [3]: −37.4 ± 8.8%

SMILES: Cc1nc(-c2ccc(C(F)(F)F)cc2)sc1CC1COC(C)(C(=O)N2CCOCC2)OC1 (stereo not shown) [Example 93, (2-methyl-5-((4-methyl-2-(4-(trifluoromethyl)phenyl)thiazol-5-yl)methyl)-1,3-dioxan-2-yl)(morpholino)methanone]
- inhibition at 1 µM (PCSK9 [1]; Concentration 1 μM): 20%
- inhibition at 10 µM (PCSK9 [1]; Concentration 10 μM): 16%
- inhibition at 100 µM (PCSK9 [1]; Concentration 100 μM): 49%
- % Change in LDL-C [3]: −46.0 ± 6.2%

From patent US20120252796A1, “COMPOUNDS FOR THE TREATMENT OF DYSLIPIDEMIA AND RELATED DISEASES” (priority 2009, published 2012)
